As a reminder, the IC50 is the midpoint of a concentration-inhibition curve. A lower IC50 goes with inhibition by little substance.

For one experiment, the system named is NCI-H2122 xenograft. As to the kind of experiment: Human NCI-H2122 xenograft tumor growth in athymic nude mice. The format is in vivo. As for the experimental part: (§1) NCI-H2122 is a human adenocarcinoma non-small cell lung cancer cell line (ATCC® as CRL-5985). The cells are grown in culture media at 37° C. in 5% CO2 with humidity in the atmosphere. Cell culture media for NCI-H2122 is RPMI-1640 with 2 mM L-glutamine, 10 mM 2-[4-(2-hydroxyethyl)piperazin-1-yl]ethanesulfonic acid (HEPES), 1 mM sodium pyruvate, 4500 mg/L glucose, 1500 mg/L sodium bicarbonate, and 10% fetal bovine serum (FBS).
To evaluate in vivo efficacy 5×10^6 NCI-H2122 cells in a 1:1 Matrigel® mix (0.2 mL volume) are implanted by subcutaneous injection in the hind leg of 6-8 weeks of age athymic nude female mice (Harlan Laboratories). Just before implantation animals are irradiated ([…]). Mice are fed ad libitum on normal chow. Treatment is initiated with oral administration (gavage) of Compound A in 1% sodium carboxymethylcellulose (Na-CMC) in 0.25% Tween®-80, or Compound B in 1% hydroxyethyl cellulose (HEC) in phosphate buffer pH 2.0 or their respective vehicle in 0.2 mL volume when tumor size reaches to 150±50 mm^3. Compound A is administered at 5 or 8 mg/kg on a Wednesday, Friday, and Monday schedule (TIW) for 2 weeks and Compound B is administered at 25 or 50 mg/kg daily for 14 days.
Tumor growth and body weight are monitored over time to evaluate efficacy and signs of toxicity. Bidimensional measurements of tumors are performed twice a week and tumor volumes are calculated based on the following formula: (Tumor Volume)=[(L)×(W2)×(Π/6)] where L is mid-axis length and W is mid-axis width. Tumor volume data are transformed to a log scale to equalize variance across time and treatment groups. The log volume data are analyzed with a two-way repeated measures analysis of variance by time and treatment using the MIXED™ procedures in SAS™ software (version 8.2). The correlation model for the repeated measures is spatial power. Test Groups are: • 1: 1% HEC in 25 mM Phosphate Buffer, pH 2, QD×14, PO/1% CMC/0.25% Tween 80/0.05% Antifoam, /W-F-M×2, PO • 3: Compound B, 50 mg/kg, QD×14, PO • 4: Compound A, 5 mg/kg, W-F-M×2, PO • 5: Compound A, 8 mg/kg, W-F-M×2, PO • 7: Compound B, 50 mg/kg, QD×14, PO/Compound A, 5 mg/kg, W-F-M×2, PO • 8: Compound B, 50 mg/kg, QD×14, PO/Compound A, 8 mg/kg, W-F-M×2, PO Group 7 and a Group 9 were combined and labelled group 7, because they received the same treatment regimen contrary to testing procedures. […] Group 2 is not shown as it was Compound B monotreatment at the same treatment regimen as Compound B in Group 6 combination treatment.
Using the repeated measures analysis previously described, a contrast statement is used to test for an interaction effect on study day 27, using the two specific treatments that were combined (Group 7).

In experiment [1] the test system is pRB (phospho-ser780-Rb), total RB, Topo IIa and pHH3 in H2122 cells. The experiment in a line: Cell cycle biomarker expression by immunoblotting in H2122 cells. The format is cell-based, human. The method, then: Time Course Study: NCI-H441 and NCI-H2122 NSCLC cell lines are treated for 4 or 24 hours with 1 μM of Compound A and harvested to evaluate effects on cell cycle biomarker expression which includes the cell cycle inhibitors p21 and p27 as well as markers for cell cycle progression including phospho-histone H3 (pHH3) (a marker for M-phase), Topo 2A (a marker for S-phase), phospho_ser780-RB (a marker for G1 and, as well as, for CDK4/6 inhibition) and cyclin Dl. […] […] Cells are harvested after 24 hours of treatment and evaluated for expression of various cell cycle biomarkers by immunoblotting. […] RB is the direct kinase target of CDK4/6 so inhibition of pRB provides a direct measure of CDK4/6 inhibition. The inhibition of Topo IIA and pHH3 are indicative of the inhibition of cell cycle progression through S and M phases of the cell cycle, respectively. […] The same study is carried out in the H441 cell line. […] RB is the direct kinase target of CDK4/6 so inhibition of pRB provides a direct measure of CDK4/6 inhibition. The inhibition of Topo IIA and pHH3 are indicative of the inhibition of cell cycle progression through S and M phases of the cell cycle, respectively.

A further experiment concerns NCI-H2122. As to the kind of experiment: Cell growth inhibition by CellTiter-Glo assay, NCI-H2122. The format is cell-based. Particulars: Homo sapiens, Compound B alone, 48 hours. As for the experimental part: (§2) The non-small cell lung cancer (NSCLC) lines NCI-H441 (ATCC® as HTB-174) and NCI-H2122 (ATCC® as CRL-5985) are grown in RPMI-1640 medium supplemented with 2 mM L-glutamine, 10 mM HEPS, 1 mM sodium pyruvate, 4500 mg/L glucose, 1500 mg/L sodium bicarbonate, and 10% fetal bovine serum (FBS) at 37° C. in 5% CO2 with humidity in the atmosphere. The cells are subcultured according to ATCC procedures and treated with increasing concentrations of abemaciclib mesylate (Compound B) either in the presence or absence of 1 μM of Compound A. The growth of the cells is quantified 48 hours later by a CellTiter-Glo assay (Promega). Growth inhibition at each concentration is calculated and IC50 values are determined from the 4-parameter concentration-response curves.
as §1
(In general: ATP-based viability assays read luminescence as a measure of living cells.)

For the next experiment, the system named is NCI-H441. The experiment in a line: Cell growth inhibition by CellTiter-Glo assay, NCI-H441. Format: cell-based. To be noted: Homo sapiens, Compound B alone, 48 hours. The method, then: as §2
The mark [2] stands for this setting: Compound B 0.05-0.8 μM with or without 1 μM Compound A added 1 day before Compound B, 24 hours after addition.
[3] abbreviates: Compound B 0.05-0.8 μM with or without 1 μM Compound A added simultaneously, 24 hours.

`C[C@H](NC(=O)CCC(F)(F)F)C(=O)N[C@@H]1C(=O)N(CCO)c2ncccc2-c2ccccc21` [Compound A, 4,4,4-trifluoro-N-[(1S)-2-[[(7S)-5-(2-hydroxyethyl)-6-oxo-7H-pyrido[2,3-d][3]benzazepin-7-yl]amino]-1-methyl-2-oxo-ethyl]butanamide]: the “Geometric Mean tumor volume” value in the experiment on NCI-H2122 xenograft (Group 04: Compound A 5 mg/kg W-F-M×2 PO, study day 6) amounted to 110.18 mm^3; in the experiment with NCI-H2122 xenograft (Group 04: Compound A 5 mg/kg W-F-M×2 PO, study day 9), 129.04 mm^3; in the experiment with NCI-H2122 xenograft (Group 04: Compound A 5 mg/kg W-F-M×2 PO, study day 13) it was 189.14 mm^3; in the experiment on NCI-H2122 xenograft (Group 04: Compound A 5 mg/kg W-F-M×2 PO, study day 16), 289.03 mm^3; in the experiment on NCI-H2122 xenograft (Group 04: Compound A 5 mg/kg W-F-M×2 PO, study day 20), 447.05 mm^3; in the experiment on NCI-H2122 xenograft (Group 04: Compound A 5 mg/kg W-F-M×2 PO, study day 23), 585.69 mm^3. For the same compound, the “Geometric Mean tumor volume” value with NCI-H2122 xenograft (Group 04: Compound A 5 mg/kg W-F-M×2 PO, study day 27) was determined as 761.24 mm^3; in the experiment with NCI-H2122 xenograft (Group 05: Compound A 8 mg/kg W-F-M×2 PO, study day 6), 127.60 mm^3; in the experiment on NCI-H2122 xenograft (Group 05: Compound A 8 mg/kg W-F-M×2 PO, study day 9) it was 165.23 mm^3; in the experiment on NCI-H2122 xenograft (Group 05: Compound A 8 mg/kg W-F-M×2 PO, study day 13), 199.00 mm^3; with NCI-H2122 xenograft (Group 05: Compound A 8 mg/kg W-F-M×2 PO, study day 16), 301.93 mm^3; with NCI-H2122 xenograft (Group 05: Compound A 8 mg/kg W-F-M×2 PO, study day 20), 492.37 mm^3. The “Geometric Mean tumor volume” value in the experiment with NCI-H2122 xenograft (Group 05: Compound A 8 mg/kg W-F-M×2 PO, study day 23) is on record as 481.31 mm^3; with NCI-H2122 xenograft (Group 05: Compound A 8 mg/kg W-F-M×2 PO, study day 27), 570.39 mm^3. The “cell cycle biomarker expression, time course study” value in experiment [1] (1 μM Compound A, 24 hours of treatment) is “Marginal reductions of pHH3, Topo2A, pRB and total RB”. The “cell cycle biomarker expression, concentration-response study” value in experiment [1] (setting [2]) and in experiment [1] (setting [3]) was “no effect on the expression of these biomarkers” in each case.

With `CCN1CCN(Cc2ccc(Nc3ncc(F)c(-c4cc(F)c5nc(C)n(C(C)C)c5c4)n3)nc2)CC1` [Compound B, N-[5-(4-ethyl-piperazin-1-ylmethyl)-pyridin-2-yl]-[5-fluoro-4-(7-fluoro-3-isopropyl-2-methyl-3H-benzoimidazol-5-yl)-pyrimidin-2-yl]-amine, reference compound], the figures for the half-inhibitory concentration (IC50) in the experiment with NCI-H2122 and in the experiment on NCI-H441 were 450 nM and 970 nM, respectively. The “Geometric Mean tumor volume” value came out at 136.94 mm^3 in the experiment on NCI-H2122 xenograft (Group 03: Compound B 50 mg/kg QD×14 PO, study day 6); 188.32 mm^3 in the experiment with NCI-H2122 xenograft (Group 03: Compound B 50 mg/kg QD×14 PO, study day 9); 191.75 mm^3 in the experiment with NCI-H2122 xenograft (Group 03: Compound B 50 mg/kg QD×14 PO, study day 13); 321.32 mm^3 in the experiment on NCI-H2122 xenograft (Group 03: Compound B 50 mg/kg QD×14 PO, study day 16); 376.59 mm^3 in the experiment on NCI-H2122 xenograft (Group 03: Compound B 50 mg/kg QD×14 PO, study day 20); 489.72 mm^3 in the experiment on NCI-H2122 xenograft (Group 03: Compound B 50 mg/kg QD×14 PO, study day 23). For the same compound, the “Geometric Mean tumor volume” value in the experiment with NCI-H2122 xenograft (Group 03: Compound B 50 mg/kg QD×14 PO, study day 27) is recorded as 491.92 mm^3. For the same compound, the “cell cycle biomarker expression, concentration-response study” value in experiment [1] (setting [2]) is “concentration-dependent inhibition of pRB (phospho-ser780-Rb), total RB, Topo IIa and pHH3”; in experiment [1] (setting [3]), “concentration-dependent inhibition of pRB (phospho-ser780-Rb), total RB, Topo IIa and pHH3”.

The record behind these values is US11298362B2, “Combination therapy with Notch and CDK4/6 inhibitors for the treatment of cancer” (Eli Lilly and Company, priority 2016, dated 2022).
